Measured values published in patent US8906895B2, “Optically active dibenzylamine derivative, and method for preparing thereof” (Kowa Company, Ltd., priority 2010, dated 2014).
Marks after values point to notes of the source that are not given here.

Columns and labels:
[1] = test system: human HMG-CoA reductase mRNA; test: HMG-CoA reductase mRNA expression in HepG2 cells by quantitative real-time PCR; type: cell-based; conditions: 10 μM, 8 hours; for HMG-CoA reductase mRNA expression amount (Relative value based on average value of control taken as 1): average ± standard error, 3 samples
Method: A test compound was added to the HepG2 cells and the cells were cultured for 8 hours, and then HMG-CoA reductase mRNA expression amount was measured by quantitative real-time PCR.
Specifically, the HepG2 cells were inoculated on a 24-well plate at a density of 2×10^5 cells/well and cultured overnight, and then a test compound dissolved in dimethyl sulfoxide (DMSO), or only DMSO was added to the culture medium in a 1/1000-fold amount. The cells were cultured at 37° C. for 8 hours in a CO2 incubator, and then added with 500 μL of ISOGEN (NIPPON GENE, Catalog No. 31-02501), and the total RNA was extracted. cDNA was synthesized from the extracted total RNA by using High Capacity cDNA Reverse Transcription Kit (Applied Biosystems, Catalog No. 4368813). Expression amount of human HMG-CoA reductase mRNA was measured by quantitative real-time PCR using a set of the following primers: 5′-[…]-3′ (SEQ ID No:1) and 5′-[…]-3′ (SEQ ID No:2) specific to human HMG-CoA reductase, and Fast SYBR Green Master Mix (Applied Biosystems, Catalog No. 4385614). As the measurement apparatus, 7900HT Fast Realtime PCR System was used.
The resulting measured values of the HMG-CoA reductase mRNA expression amount were corrected between those obtained for test compound addition samples (3 samples for each compound) and control samples (sample added with only DMSO, 3 samples) using the β-actin mRNA expression amounts as index. The corrected HMG-CoA reductase mRNA expression amount of the test compound addition sample was represented with a relative value (average±standard error) based on average of the HMG-CoA reductase mRNA expression amounts of the control samples, which was taken as 1.

PCSK9 protein = PCSK9 protein amount in HepG2 cells by Western blotting; type: cell-based, human; conditions: 48 hours; for PCSK9 protein amount (Relative value based on value of control taken as 1): 10 μM in culture medium, corrected by β-actin; for PCSK9 protein amount-reducing action in comparison with the control (in words): 10 μM
Method: (§1) Influence of a test compound on amount of PCSK9 protein and amount of LDL receptor was studied by adding the test compound to human hepatoma cell strain, HepG2 cells, and measuring amount of PCSK9 protein and amount of LDL receptor (LDLR) by Western blotting after culture for 48 hours.
(§2) Specifically, the HepG2 cells were inoculated on a 6-well plate at a density of 5×10^5 cells/well and cultured overnight, and a test compound dissolved in dimethyl sulfoxide (DMSO), or only DMSO was added to the culture medium in a 1/1000-fold amount. The cells were cultured at 37° C. for 48 hours in a CO2 incubator, the culture was added with 100 μL of the RIPA buffer (50 mM Tris-HCl, pH 7.8, 150 mM NaCl, 1% NP-40, 0.5% sodium deoxycholate, 0.1% SDS, proteinase inhibitor) to disrupt the cells, and proteins were extracted. The extracted proteins were centrifuged at 10000×g, the supernatant was collected, and added with an SDS sample buffer (60 mM Tris-HCl, pH 6.8, 2% SDS, 10% glycerol, 3% mercaptoethanol), and the mixture was subjected to separation by SDS-PAGE (SDS-polyacrylamide gel electrophoresis) using 8% acrylamide gel. After completion of the separation, the proteins were fixed on a nitrocellulose membrane by using iBlot Gel Transfer System (Invitrogen), and blocked by using Block Ace (DS Pharma Biomedical, Catalog No. UK-B 80).
(§3) Detection of the PCSK9 protein, LDLR, and β-actin protein, and measurement of the amounts thereof were performed by labeling the proteins on the membrane using Anti-PCSK9 (Cayman, Catalog No. 1000718), Anti-LDLR (BioVision, Catalog No. 3839-100), and Anti-β-Actin (Sigma, Catalog No. A5316), respectively, as the primary antibody, and Anti-Rabbit IgG-HRP (Sigma, Catalog No. A0545) or Anti-Mouse IgG-HRP (Sigma, Catalog No. A4416) as the secondary antibody, reacting a chemiluminescence reagent (substrate of HRP) with the secondary antibody on the membrane, and then measuring signal intensity using Lumino Image Analyzer LAS-3000 (Fuji Photo Film). The resulting signal intensity wag numprirally evaluated by using image analysis software, Science Lab 2002 Multi Gauge (Fuji Photo Film).
(§4) The resulting measured values of the PCSK9 protein amount and the LDL receptor amount were corrected between those obtained for the sample added with a test compound and the control sample (sample added with only DMSO) using the β-actin protein amounts as index. The corrected PCSK9 protein amount and LDL receptor amount of the test compound addition sample were represented by relative values based on the PCSK9 protein amount and LDL receptor amount of the control sample, respectively, which were taken as 1.

LDL receptor (LDLR) = test: LDL receptor amount in HepG2 cells by Western blotting; type: cell-based, human; conditions: 48 hours; for LDL receptor amount (Relative value based on value of control taken as 1): 10 μM in culture medium, corrected by β-actin; for LDL receptor amount-increasing action in comparison with the control (in words): 10 μM
Method: as §1, §2, §3, §4

human PCSK9 mRNA = test: PCSK9 mRNA expression in HepG2 cells by quantitative real-time PCR; type: cell-based; conditions: 10 μM, 24 hours
Method: Specifically, the HepG2 cells were inoculated on a 24-well plate at a density of 2×10^5 cells/well and cultured overnight, and then a test compound dissolved in dimethyl sulfoxide (DMSO), or only DMSO was added to the culture medium in a 1/1000-fold amount. The cells were cultured at 37° C. for 24 hours in a CO2 incubator, and then added with 500 μl of ISOGEN (NIPPON GENE, Catalog No. 31-02501), and the total RNA was extracted. cDNA was synthesized from the extracted total RNA by using High Capacity cDNA Reverse Transcription Kit (Applied Biosystems, Catalog No. 4368813). Expression amount of human PCSK9 mRNA was measured by quantitative real-time PCR using primers specific to human PCSK9 (Kourimate S. et al., J. Biol. Chem., Vol. 283, p9666), and Fast SYBR Green Master Mix (Applied Biosystems, Catalog No. 4385614). As the measurement apparatus, 7900HT Fast Realtime PCR System was used.
The resulting measured values of the PCSK9 mRNA expression amount were corrected between those obtained for test compound addition samples (3 samples) and control samples (sample added with only DMSO, 3 samples) using the β-actin mRNA expression amounts as index. […]

[2] = test system: LDL cholesterol in the plasma; test: Blood LDL cholesterol-reducing action in normal hamsters; type: in vivo, male Syrian hamsters; conditions: for LDL cholesterol-reducing rate: based on control group; for Average LDL cholesterol amount ± standard deviation: plasma 4 hours after final administration, control 50 ± 3.0
Text: (S)-trans-{4-[({2-[({1-[3,5-Bis(trifluoromethyl)phenyl]ethyl}{5-[2-(methylsulfonyl)ethoxy]pyrimidin-2-yl}amino)methyl]-4-(trifluoromethyl)phenyl}(ethyl)amino)methyl]cyclohexyl}acetic acid ((S)-isomer compound (III), optical purify: >99% ee) was suspended in a 0.5% methylcellulose solution, and orally administered repeatedly to normal hamsters (male Syrian hamsters) once a day over 14 days by using a metal probe. Four hours after the final administration, blood was collected, and plasma was obtained. Lipoproteins in the plasma were analyzed by automatic measurement using an HPLC system based on the post-labeling method according to the method described in J. Lipid. Res., 43, p805-814. Specifically, 15 μL of a plasma sample was diluted 10 times with PBS containing 1 mM EDTA, and 80 μl of the diluted sample was injected into a gel filtration column (Superose 6 column (column size: 10×300 mm), GE Healthcare Bioscience) connected to an HPLC system (liquid feeding unit: Shimadzu LC-20A System, Shimadzu). Separation was performed at a flow rate of 0.5 mL/minute and a column temperature of 40° C. by using PBS containing 1 mM EDTA as a running buffer. A cholesterol-measuring reagent (Cholesterol E-Test Wako, Wako Pure Chemical Industries) was mixed with the eluate from the column at a flow rate of 0.25 mL/minute, and the reaction was performed at 40° C. in a reaction coil (0.5 mm×15 m) with feeding the eluate. Cholesterols in the eluate obtained from the reaction coil were detected at a wavelength of 600 nm. Area ratio of the LDL fraction based on the resulting total peak area of cholesterols was calculated, and the total cholesterol amount measured beforehand by using Cholesterol E-Test Wako was multiplied by the area ratio of the LDL fraction to calculate LDL cholesterol amount.
Six normal hamsters were used for each of the control group (0.5% methylcellulose solution administration group) and the test compound administration groups (10 mg/kg body weight and 30 mg/kg body weight of (S)-isomer compound (III) administration groups). The hamsters were divided into the groups beforehand on the basis of the total plasma cholesterol value.
The symbols * and *** in Table 3 means that there were significant differences at a significance level of 5% or less (p<0.05) and a significance level of 0.1% or less (p<0.001), respectively, as determined by a multi-group comparison test (Dunnett's multiple comparison test) performed between the control group and each of the test compound administration groups. Further, the LDL cholesterol amount-reducing rate of the test compound administration group based on the control group was calculated in accordance with the following equation 1 as an LDL cholesterol-reducing rate, and indicated in terms of percentage. LDL cholesterol-reducing rate(%)=[(Average of LDL cholesterol amount of control group−Average of LDL cholesterol amount of compound administration group)/Average of LDL cholesterol amount of control group]×100 (Equation 1)

[3] = 10 mg/kg orally once a day over 14 days
[4] = 30 mg/kg orally once a day over 14 days

| SMILES | Effect on HMG-CoA reductase mRNA expression amount in comparison with the control (in words) [1] | HMG-CoA reductase mRNA expression amount (Relative value based on average value of control taken as 1) [1] | PCSK9 protein amount (Relative value based on value of control taken as 1) (PCSK9 protein) | PCSK9 protein amount-reducing action in comparison with the control (in words) (PCSK9 protein) | LDL receptor amount (Relative value based on value of control taken as 1) (LDL receptor (LDLR)) | LDL receptor amount-increasing action in comparison with the control (in words) (LDL receptor (LDLR)) | Effect on expression amount of PCSK9 mRNA in comparison with the control (in words) (human PCSK9 mRNA) | PCSK9 mRNA expression amount (Relative value based on average value of control taken as 1) (human PCSK9 mRNA; average ± standard error, 3 samples) | LDL cholesterol-reducing rate [2, 3] [%] | Average LDL cholesterol amount ± standard deviation [2, 3] | LDL cholesterol-reducing rate [2, 4] [%] | Average LDL cholesterol amount ± standard deviation [2, 4] | Blood LDL cholesterol-reducing action (in words) ([2]; normal hamsters, 10 and 30 mg/kg orally, 14 days) |
| --- | --- | --- | --- | --- | --- | --- | --- | --- | --- | --- | --- | --- | --- |
| CCN(C[C@H]1CC[C@H](CC(=O)O)CC1)c1ccc(C(F)(F)F)cc1CN(c1ncc(OCCS(C)(=O)=O)cn1)C(C)c1cc(C(F)(F)F)cc(C(F)(F)F)c1 (mixture of isomers) [Racemate compound (I), trans-{4-[({2-[({1-[3,5-Bis(trifluoromethyl)phenyl]ethyl}{5-[2-(methylsulfonyl)ethoxy]pyrimidin-2-yl}amino)methyl]-4-(trifluoromethyl)phenyl}(ethyl)amino)methyl]cyclohexyl}acetic acid, reference compound] | remarkably reduced | 0.37 ± 0.02 | 0.68 | almost no such actions | 0.73 | almost no such actions |  |  |  |  |  |  |  |
| CCN(C[C@H]1CC[C@H](CC(=O)O)CC1)c1ccc(C(F)(F)F)cc1CN(c1ncc(OCCS(C)(=O)=O)cn1)[C@@H](C)c1cc(C(F)(F)F)cc(C(F)(F)F)c1 [(S)-Isomer compound (III), (S)-trans-{4-[({2-[({1-[3,5-Bis(trifluoromethyl)phenyl]ethyl}{5-[2-(methylsulfonyl)ethoxy]pyrimidin-2-yl}amino)methyl]-4-(trifluoromethyl)phenyl}(ethyl)amino)methyl]cyclohexyl}acetic acid] |  |  | 0.28 | markedly reduced | 1.73 | remarkably increased | remarkably reduced | 0.18 ± 0.13 | 20.0 | 40 ± 2.6* mg/dl | 38.0 | 31 ± 2.6*** mg/dl | superior blood LDL cholesterol-reducing action |
| CCN(C[C@H]1CC[C@H](CC(=O)O)CC1)c1ccc(C(F)(F)F)cc1CN(c1ncc(OCCSC)cn1)C(C)c1cc(C(F)(F)F)cc(C(F)(F)F)c1 (relative stereo) [trans-{4-[({2-[({1-[3,5-Bis(trifluoromethyl)phenyl]ethyl}{5-[2-(methylthio)ethoxy]pyrimidin-2-yl}amino)methyl]-4-(trifluoromethyl)phenyl}(ethyl)amino)methyl]cyclohexyl}acetic acid] | remarkably reduced | 0.25 ± 0.03 |  |  |  |  |  |  |  |  |  |  |  |
| CCN(C[C@H]1CC[C@H](CC(=O)O)CC1)c1ccc(C(F)(F)F)cc1CN(c1ncc(OCCS(C)(=O)=O)cn1)[C@H](C)c1cc(C(F)(F)F)cc(C(F)(F)F)c1 [(R)-Isomer compound (II), (R)-trans-{4-[({2-[({1-[3,5-Bis(trifluoromethyl)phenyl]ethyl}{5-[2-(methylsulfonyl)ethoxy]pyrimidin-2-yl}amino)methyl]-4-(trifluoromethyl)phenyl}(ethyl)amino)methyl]cyclohexyl}acetic acid] |  |  | 1.05 | almost no such actions | 0.93 | almost no such actions |  |  |  |  |  |  |  |
